The text below walks through data of patent US6063804A, “Pyrrole compounds” (Adir et Compagnie, priority 1997, dated 2000).

Like-named read-outs stand apart in the source and are kept apart here.

In experiment [1] the test system is IL1β production by THP1 line cells. The experiment in a line: Inhibition of production of IL1β by THP1 line cells stimulated with LPS. The class given is cell-based. To be noted: Homo sapiens, THP-1.
The target in a further experiment is T1, cyclooxygenase 1 (COX 1) (Mus musculus, UniProt P22437).
T1 construct: using mice peritoneal macrophages exposed to inflammatory stimuli (zymosan and LPS, respectively); endogenous in cells; host or cells: mouse peritoneal macrophages exposed to zymosan
T1 sequence (P22437 27-602): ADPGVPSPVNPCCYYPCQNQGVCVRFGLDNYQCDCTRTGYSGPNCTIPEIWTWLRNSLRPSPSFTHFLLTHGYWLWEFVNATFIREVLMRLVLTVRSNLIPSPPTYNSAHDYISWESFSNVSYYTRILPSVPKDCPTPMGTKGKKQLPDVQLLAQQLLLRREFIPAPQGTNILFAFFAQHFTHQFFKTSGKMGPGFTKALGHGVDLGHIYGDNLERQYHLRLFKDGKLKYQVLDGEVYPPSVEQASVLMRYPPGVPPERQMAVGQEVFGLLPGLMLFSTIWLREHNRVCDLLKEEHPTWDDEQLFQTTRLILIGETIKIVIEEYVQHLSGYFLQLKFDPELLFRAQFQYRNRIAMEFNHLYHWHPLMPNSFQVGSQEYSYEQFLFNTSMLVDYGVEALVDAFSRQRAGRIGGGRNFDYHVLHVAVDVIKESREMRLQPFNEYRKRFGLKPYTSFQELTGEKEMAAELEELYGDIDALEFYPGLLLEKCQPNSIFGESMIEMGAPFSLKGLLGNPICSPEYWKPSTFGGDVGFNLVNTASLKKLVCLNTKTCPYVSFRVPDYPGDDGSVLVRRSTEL
The experiment is described as follows: Inhibitory activity in relation to COX 1 in peritoneal macrophages exposed to zymosan. The class given is cell-based. To be noted: mice peritoneal macrophages. As for the experimental part: (§1) The inhibitory activities of the compounds in relation to COX 1 and COX 2 were evaluated using mice peritoneal macrophages exposed to inflammatory stimuli (zymosan and LPS, respectively) in accordance with the method described by Tordjman el al., Biochimica et Biophysica Acta, 1995, 1256, 249-56.

For a further experiment, the target named is T2, cyclooxygenase 2 (COX 2) (Mus musculus, UniProt Q05769).
T2 construct: using mice peritoneal macrophages exposed to inflammatory stimuli (zymosan and LPS, respectively); endogenous in cells; host or cells: mouse peritoneal macrophages exposed to LPS
T2 sequence (Q05769 18-604): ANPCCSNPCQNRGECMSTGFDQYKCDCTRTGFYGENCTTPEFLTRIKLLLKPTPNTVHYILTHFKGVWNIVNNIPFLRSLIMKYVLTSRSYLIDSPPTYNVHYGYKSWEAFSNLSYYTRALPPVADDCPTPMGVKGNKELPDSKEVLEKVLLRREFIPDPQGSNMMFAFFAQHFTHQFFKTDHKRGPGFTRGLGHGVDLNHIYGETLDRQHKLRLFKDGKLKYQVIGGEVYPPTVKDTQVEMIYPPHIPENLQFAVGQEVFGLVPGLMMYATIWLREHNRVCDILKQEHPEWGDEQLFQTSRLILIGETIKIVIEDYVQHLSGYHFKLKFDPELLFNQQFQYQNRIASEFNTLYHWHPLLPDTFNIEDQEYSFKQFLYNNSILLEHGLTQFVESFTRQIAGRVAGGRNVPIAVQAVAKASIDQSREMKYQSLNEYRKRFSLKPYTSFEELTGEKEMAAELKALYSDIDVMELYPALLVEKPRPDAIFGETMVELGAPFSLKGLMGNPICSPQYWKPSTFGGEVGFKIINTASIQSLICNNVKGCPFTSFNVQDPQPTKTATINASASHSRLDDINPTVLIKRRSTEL
The experiment in a line: Inhibitory activity in relation to COX 2 in peritoneal macrophages exposed to LPS. The experiment is classed as cell-based. As for the experimental part: as §1

In experiment [2] the test system is production of prostaglandins. The experiment is described as follows: Inhibition of prostaglandin production in the carrageenin air-pouch model. The experiment is classed as in vivo. To be noted: oral, mouse. The text has this:
In addition, those compounds exert an activity in animals especially by inhibiting the production of prostaglandins in the carrageenin air-pouch model in the mouse (Whittle, B. J. R. et al., Nature, 1980, 284, 271-273; Masferrer, J. L. el al., Proc. Natl. Acad. Sci. USA, 1994, 91, 3228-3232).

Experiment [3] has as its system NO production in mouse peritoneal macrophages. The experiment in a line: Inhibition of NO production in peritoneal macrophages stimulated with LPS. The experiment is classed as cell-based. The conditions noted are these: Peritoneal macrophage.

In experiment [1], `CC1Cc2c(-c3ccccc3)[nH]c(-c3ccccc3)c2CC1C` (stereo not shown) [Example 9, 1,3-diphenyl-5,6-dimethyl-4,5,6,7-tetrahydro-2H-isoindole] registered a 50% inhibitory concentration (IC50) of roughly 1000 nM. Regarding `c1ccc(-c2[nH]c(-c3ccccc3)c3c2CCCC3)cc1` [Example 2, 1,3-diphenyl-4,5,6,7-tetrahydro-2H-isoindole], the IC50 is 100 to 500 nM against cyclooxygenase 1 (COX 1) and 1 nM on cyclooxygenase 2 (COX 2) (read-out: IC50 cox 2, mice peritoneal macrophages). For the compound `c1ccc(-c2[nH]c(-c3ccccc3)c3c2CCC3)cc1` [Example 4, 1,3-diphenyl-2,4,5,6-tetrahydrocyclopenta[c]pyrrole], the IC50 against cyclooxygenase 1 (COX 1) fell in the range of 100 to 500 nM. Consider `Fc1ccc(-c2[nH]c(-c3ccc(F)cc3)c3c2CCCC3)cc1` [Example 1, 1,3-di-(4-fluorophenyl)-4,5,6,7-tetrahydro-2H-isoindole], for which the 50% inhibitory concentration (IC50) against cyclooxygenase 1 (COX 1) was 100 to 500 nM; at cyclooxygenase 2 (COX 2) (mice peritoneal macrophages, read-out: IC50 cox 2) it was 1 nM.

Regarding `C1=CCc2c(-c3ccccc3)[nH]c(-c3ccccc3)c2C1` [Example 5, 1,3-diphenyl-4,7-dihydro-2H-isoindole], at cyclooxygenase 1 (COX 1), the IC50 came out at 100 nM. With `Fc1ccc(-c2[nH]c(-c3ccc(F)cc3)c3c2C2CCC3C2)cc1` [Example 19, 1,3-di-(4-fluorophenyl)-4,7-methano-4,5,6,7-tetrahydro-2H-isoindole], the IC50 against cyclooxygenase 1 (COX 1) turned out to be 100 nM; in experiment [3], 2500 nM. Also, the ED50 in experiment [2] was determined as 2.5 mg/kg.

What is called IC50 is the concentration that gives 50% inhibition. The term ED50 denotes the midpoint of the dose-response relation. Higher therefore signals weaker potency.
